Data taken from patent US8460669B2, “Compositions and methods for identifying response targets and treating flavivirus infection responses” (Academia Sinica, priority 2005, dated 2013).
“Also recorded” adds a separate entry of the source.

How the values were obtained:
[1] = molecular target: T1, DC-SIGNR.Fc (Homo sapiens, UniProt Q9H2X3); test: Immunosorbent dot binding assay with DC-SIGNR.Fc; settings: EDTA 10 mM in TBST
T1 construct: The extracellular domains of lectin receptors, TREMs and TLTs were cloned by the reverse-transcriptase polymerase chain reaction (RT-PCR); made in house; host or cells: 293-F (FreeStyle 293) cells
T1 sequence (Q9H2X3 71-399): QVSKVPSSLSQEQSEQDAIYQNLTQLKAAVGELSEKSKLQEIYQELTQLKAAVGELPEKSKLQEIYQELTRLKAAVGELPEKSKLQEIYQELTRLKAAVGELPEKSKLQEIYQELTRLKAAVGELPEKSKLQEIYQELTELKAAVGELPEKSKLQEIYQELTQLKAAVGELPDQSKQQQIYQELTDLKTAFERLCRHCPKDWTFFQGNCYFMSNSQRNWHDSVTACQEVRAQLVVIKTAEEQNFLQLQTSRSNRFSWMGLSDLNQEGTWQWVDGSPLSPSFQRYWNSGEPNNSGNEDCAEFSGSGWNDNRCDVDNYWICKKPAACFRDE

[2] = molecular target: T2, Dectin-1.Fc (Homo sapiens, UniProt Q9BXN2); test: Immunosorbent dot binding assay with Dectin-1.Fc; settings: competitor 0.1 μg-1000 μg, or EDTA 10 mM in TBST
T2 construct: The extracellular domains of lectin receptors, TREMs and TLTs were cloned by the reverse-transcriptase polymerase chain reaction (RT-PCR); made in house; host or cells: 293-F (FreeStyle 293) cells
T2 sequence (Q9BXN2 66-247 limits assumed): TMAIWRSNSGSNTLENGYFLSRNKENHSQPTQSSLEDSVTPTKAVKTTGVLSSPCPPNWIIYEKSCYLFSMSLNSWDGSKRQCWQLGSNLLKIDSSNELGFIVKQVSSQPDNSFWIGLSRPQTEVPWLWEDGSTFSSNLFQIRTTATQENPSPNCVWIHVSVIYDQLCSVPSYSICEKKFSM

[3] = molecular target: T3, TLT-2.Fc (Homo sapiens, UniProt Q5T2D2); test: Immunosorbent dot binding assay with TLT-2.Fc; settings: EDTA 10 mM in TBST
T3 construct: The extracellular domains of lectin receptors, TREMs and TLTs were cloned by the reverse-transcriptase polymerase chain reaction (RT-PCR); made in house; host or cells: 293-F (FreeStyle 293) cells
T3 sequence (Q5T2D2 19-268 limits assumed): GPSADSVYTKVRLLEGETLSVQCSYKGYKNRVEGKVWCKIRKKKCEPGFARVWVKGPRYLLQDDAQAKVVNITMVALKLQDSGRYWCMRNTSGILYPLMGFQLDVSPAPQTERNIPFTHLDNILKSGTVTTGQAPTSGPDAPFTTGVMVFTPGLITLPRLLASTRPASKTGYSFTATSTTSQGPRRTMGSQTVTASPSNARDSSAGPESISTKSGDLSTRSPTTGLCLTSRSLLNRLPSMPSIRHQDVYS

[4] = molecular target: T4, KCR.Fc (Mus musculus, UniProt P70194); test: Immunosorbent dot binding assay with KCR.Fc; settings: EDTA 10 mM in TBST
T4 construct: the extracellular domains of DVLR1/CLEC5A (MDL-1), Dectin-1, KCR, and DC-SIGN (as a positive control) were fused to the Fc portion of human IgG1; made in house; host or cells: 293-F (FreeStyle 293) cells
T4 sequence (P70194 70-548 limits assumed): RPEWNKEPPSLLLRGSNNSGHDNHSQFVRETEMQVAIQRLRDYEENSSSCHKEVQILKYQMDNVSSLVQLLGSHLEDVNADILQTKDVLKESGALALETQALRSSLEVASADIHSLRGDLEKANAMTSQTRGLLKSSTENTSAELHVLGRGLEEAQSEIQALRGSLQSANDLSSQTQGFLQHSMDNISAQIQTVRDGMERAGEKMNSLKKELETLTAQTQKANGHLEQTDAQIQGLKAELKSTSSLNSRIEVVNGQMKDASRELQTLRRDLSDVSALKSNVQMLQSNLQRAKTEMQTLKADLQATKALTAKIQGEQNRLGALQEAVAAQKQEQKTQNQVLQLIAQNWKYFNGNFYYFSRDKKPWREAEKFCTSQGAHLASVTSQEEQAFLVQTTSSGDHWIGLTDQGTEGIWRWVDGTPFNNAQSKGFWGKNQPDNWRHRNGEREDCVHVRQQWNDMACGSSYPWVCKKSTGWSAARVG

[5] = system: Dengue virus; test: ELISA of receptor.Fc interaction with Dengue virus; assay type: binding; settings: for interaction of receptor.Fc with Dengue virus (ELISA): receptor.Fc 1 μg, DV 5×10^6
Experimental: One μg of each receptor.Fc fusion protein was coated onto microtiter plates overnight at 4° C. DV (5×10^6 particles) of strain 16681 (a DEN2 strain) in binding buffer (1% BSA, 2 mM CaCl2, 2 mM MgCl2, 50 mM Tris-HCl pH 7.5, 150 mM NaCl) was then added to the plates and the plates were incubated for 2 hours. After washing non-bound virus, a biotinylated anti-DEN2 envelope protein antibody (Wu et al., J Virol, 2002. 76(8): p. 3596-604) was applied to bind to the virus for 1 hour. Diluted horseradish peroxidase-conjugated streptavidin was then added to the plates, followed by a 1 hour incubation. TMB substrate was then added and the plates were read using an ELISA reader at OD450 nm.
The microtiter plate assay was repeated in the presence of EDTA (10 mM) to chelate Ca^++ cations.
The microtiter plate assay was also repeated for DVLR1/CLEC5A.Fc fusion protein with DV particles (5×10^6) that had been 1) preincubated with 500 U of the glycosidase PNGaseF (New England Biolabs, Inc.) overnight at 37° C.; or 2) treated with dithiothreitol (DTTI) (0.1M); or 3) incubated at 95° C. for 5 minutes; or 4) UV irradiated for 5 minutes. The results are shown in FIG. 8D (asterisks indicate where the binding affinity of DVLR1/CLEC5A.Fc fusion protein is altered by modification of the virus relative to non-treated virus; ** p<0.01, *** p<0.001, Student's t test). […]

[6] = Enzyme linked immunoassay of receptor.Fc fusions on immobilized GLPS-F3; assay type: binding, Ganoderma lucidum; settings: GLPS-F3 100 ng/well; receptor.Fc 1 μg/ml
Experimental: The interactions of polysaccharides with receptor.Fc fusion proteins was further investigated by performing an enzyme-linked immunoassay, which was based on immobilizing GLPS-F3 through both hydrophilic and hydrophobic forces onto microtiter plates (polysytrene). In this format, the number of different receptor.Fc fusions for profiling was increased in comparison to Example 7. To optimize the quantity of GLPS-F3 for immobilization, various amounts (3-1000 ng/well, diluted in 100 mM Tris buffer, pH9.5) of biotinylated-GLPS-F3 (Biotin-GLPS-F3) were coated onto MaxiSorp StarWell microtiter plates (50 μL/well; Nunc). The plates were incubated overnight at 4° C., and then the wells were washed twice with TBST, followed by blocking with 200 μL blocking buffer (2% BSA/TBST) for 1 hour at room temperature. Peroxidase-conjugated avidin (1:5000 dilution, Vector Laboratories) and TMB (tetramethylbenzidine) substrate was then used for detection of immobilized biotinylated GLPS-F3.
The interaction between GLPS-F3 and receptor.Fc was then tested. […] Wells were incubated with 100 μL TMB substrate for 15 min after TBST washing and read at 450 nm in a Fusion plate reader (Perkin Elmer). […]

[7] = system: Dengue virus; test: Immunoprecipitation of Dengue virus with receptor.Fc; assay type: binding; settings: receptor.Fc 5 μg; DV 5×10^6; listed as DC-SIGN.Fc
Experimental: The results are depicted in FIG. 8A (** indicates p<0.01, *** indicates p<0.001 (Student's t test)). […] Specifically, 5×10^6 Dengue virus particles were incubated with 5 μg of each protein, and then Protein A beads were added. The resulting immunocomplexes were washed, separated by SDS-PAGE, and transferred onto nitrocellulose membrane. The membrane was then probed with biotinylated anti-DEN2 envelope protein antibody and developed with horseradish peroxidase-conjugated streptavidin.
In FIG. 16b, complexes of DV (5×10^6 PFU) with receptor.Fc (5 μg) were immunoprecipitated and detected on westerns with mAb to DV envelope (E) protein. […] FIGS. 16d and 16e show sugar competition assays wherein both DC-SIGN (CLEC4L) and DVLR1/CLEC5A increase DV binding to human 293T cells (FIG. 16d), while addition of sugars inhibits biotinylated DV binding to DC-SIGN- (left panel) or DLVR1/CLEC5A- (right panel) transfected 293T cells in a dose-dependent manner as determined by flow cytometry (FIG. 16e). According to FIG. 16e, MFI represents mean fluorescence intensity. Units (U) for monosaccharide (mannose and fucose) and polysaccharide (mannan) are mM and mg/ml, respectively. […] Data are expressed as the mean±s.d. of three independent experiments. Two-tailed, Student's t-tests were performed. […]

| Molecule | inhibition of the interaction of F3 with DC-SIGNR.Fc [1] | inhibition of the interaction between Dectin-1.Fc and F3 [2] | inhibition of the interaction of F3 with TLT2.Fc [3] | inhibition of the interaction of F3 with KCR.Fc [4] | interaction of receptor.Fc with Dengue virus (ELISA) [5] | binding ability to GLPS-F3 [6] | immunoprecipitation of Dengue virus (E protein detected) [7] | binding to DV pretreated with heat or dithiothreitol ([5]; 95° C. 5 min or DTT 0.1 M) | Ca^++ dependence of binding to Dengue virus ([5]; EDTA 10 mM) | interaction of receptor.Fc with Dengue virus (ELISA) ([5]; listed as DC-SIGN.Fc) |
| --- | --- | --- | --- | --- | --- | --- | --- | --- | --- | --- |
| O=C(O)CN(CCN(CC(=O)O)CC(=O)O)CC(=O)O [EDTA, Ethylene Diamine Tetra Acetic Acid] | completely oabolished | not | not | completely oabolished |  |  |  |  |  |  |
| Fc.DC-SIGNR: DC-SIGNR (CLEC4M) receptor.Fc fusion protein |  |  |  |  | able to capture DV2 | minimal binding ability |  |  |  |  |
| Fc.DC-SIGN: DC-SIGN (CLEC4L) extracellular domain fused to human IgG1 Fc (protein, left off: a dimerising Fc or GST) QVSKVPSSISQEQSRQDAIYQNLTQLKAAVGELSEKSKLQEIYQELTQLKAAVGELPEKSKLQEIYQELTRLKAAVGELPEKSKLQEIYQELTWLKAAVGELPEKSKMQEIYQELTRLKAAVGELPEKSKQQEIYQELTRLKAAVGELPEKSKQQEIYQELTRLKAAVGELPEKSKQQEIYQELTQLKAAVERLCHPCPWEWTFFQGNCYFMSNSQRNWHDSITACKEVGAQLVVIKSAEEQNFLQLQSSRSNRFTWMGLSDLNQEGTWQWVDGSPLLPSFKQYWNRGEPNNVGEEDCAEFSGNGWNDDKCNLAKFWICKKSAASCSRDEEQFLSPAPATPNPPPA |  |  |  |  | binds |  | able to immunoprecipitate DV; also recorded: detected | not | Ca^++ dependent; also recorded: Ca^++-dependent | able to capture DV2 |
